Assay results reported in patent publication US6486136B1, “Combinations comprising VX478, zidovudine and/or 1592U89 for use in the treatment of HIV” (SmithKline Beecham Corporation, priority 1996, dated 2002).
Read-outs that look alike come from different tables or passages of the source.

System: HIV-1 Strain IIIB
Experiment: Double combination dose response matrices in MT2-cells infected with HIV-1 Strain IIIB (MacSynergy II / Greco analysis)
Type: cell-based
Settings: Greco model estimate; for EC50: MT2-cells, HIV-1 IIIB, medium with 10% fetal bovine serum plus α1 acid glycoprotein (1 mg/ml) and albumin (40 mg/ml)
Experimental: Triplicate in vitro dose response matrices were prepared using MT2-cells infected with HIV-1 Strain IIIB. In order to account for the effects of protein binding, tissue culture medium with 10% fetal bovine serum was supplemented with the human serum proteins α1, acid glycoprotein (1 mg/ml) and albumin (40 mg/ml). The 3-D drug interaction surface for 1592U89 and 141W94 was constructed using the program MacSynergy II. As analyzed relative to a Bliss Independence null reference model, this combination was synergistic with volumes of synergy exceeding 100 (99% confidence). Analysis of the data set with a fully parametric form of an equation for the quantitation of drug interaction developed by Greco et al. also indicated synergy. The parameters, with 95% confidence intervals are shown below: EC50 is the half maximal response concentration. “m” is the slope parameter. Alpha is the synergy parameter.

Row | Compound | EC50 (Human immunodeficiency virus 1, read-out: EC50,141w) [nM] | m141w (slope parameter) (same matrix) | EC50 (read-out: EC50,1592u) [nM] | m1592u (slope parameter) (same matrix)
1 | CC(C)CN(C[C@@H](O)[C@H](Cc1ccccc1)NC(=O)O[C@H]1CCOC1)S(=O)(=O)c1ccc(N)cc1 (relative stereo) [141W94, 3S-[3R*(1R*,2S*)]-[3-[[(4-aminophenyl)sulphonyl](2-methylpropyl)-amino]-2-hydroxy-1-phenylmethyl)propyl]carbamic acid, tetrahydro-3-furanyl ester] | 394 | 2.20 | – | –
2 | Nc1nc(NC2CC2)c2ncn([C@H]3C=C[C@@H](CO)C3)c2n1 (relative stereo) [1592U89, (1S,4R)-cis-4-[2-amino-6-(cyclopropylamino)-9H-purin-9-yl]-2-cyclopentene-1-methanol] | – | – | 626 | 1.60
